# Measurements taken from patent US20260232707A1, “METABOLIC INHIBITORS AND METHODS OF MAKING AND USING THEREOF” (UNIVERSITY OF MIAMI, priority 2023, published 2026).
# “Also recorded” adds a separate entry of the source.
# Key:
# [1] = Stability at different pH values by HPLC and LC-MS (Example 1); assay type: physicochemical; details: for degradation / stability at acidic pH: acidic pH (4.0); for stability in alkaline conditions: alkaline conditions (pH 9.5); for stability in alkaline conditions / hydrolysis in neutral conditions: DMF-water (2/1, v/v), room temperature; for hydrolysis in neutral conditions: neutral conditions (pH 7.4)
# Method: FIGS. 2A-2B. Stability of Mito-SilylDCA at different pH values. Traces of HPLC plots of (FIG. 2A) Mito-SilylDCA and (FIG. 2B) Mito-DCA in solutions of different pH values along with plots of percent of the compound remained with time. A solution of Mito-SilylDCA or Mito-DCA in DMF-water (2/1, v/v) was incubated for different times (12 h, 24 h, and 48 h) at different pH environments (4.0, 7.4, and 9.5) at room temperature.
# Stability of Mito-SilylDCA. A combination of HPLC and LC-MS analytical techniques were employed to understand the stability of Mito-SilylDCA in different physiological environments. A solution of Mito-SilylDCA or Mito-DCA in DMF-water (2/1, v/v) was incubated for 12, 24, and 48 h at different pH environments of 4.0, 7.4, and 9.5 at room temperature and the degradation behavior of the compounds was analyzed with HPLC and LC-MS (FIGS. 2A and 2B). […] After 12 h, more than 60% of compounds are decomposed at pH 7.4, which should be due to the hydrolysis of DCA and the silyl chain. […] Both Mito-DCA and Mito-SilylDCA were unstable in alkaline conditions and the compounds decomposed easily. […] The better stability of Mito-SilylDCA compared to Mito-DCA would be beneficial for the long-term storage and further application in biological environment.
# [2] = system: 4T1 breast cancer cell line; experiment: Seahorse glycostress assay (ECAR); assay type: cell-based, murine; details: 4T1 cells, 6 h; for glycolytic inhibitory properties compared to NaDCA: 200 μM vs NaDCA 600 μM; for glycolysis inhibition (ECAR): compared with control group
# Source text: FIGS. 3A-3C show cellular glycolysis inhibition by Mito-SilylDCA. Glycolytic inhibition efficacy of Mito-SilylDCA was investigated along with the components used for synthesizing Mito-SilylDCA. (FIG. 3A) Chemical structures of TPP-(CH2)5—COOH), methoxyl(octadecyldimethyl)silane, sodium dichloroacetate (NaDCA), Mito-DCA, and Mito-SilylDCA. (FIG. 3B) Extracellular acidification rate (ECAR) measured in 4T1, murine breast cancer cell line, upon treatment with the compounds mentioned in A. The cells were pre-treated with the test articles at the following concentration: TPP-(CH2)5—COOH (200 μM), methoxy (octadecyldimethyl)silane (200 μM), NaDCA (600 μM), Mito-DCA (200 μM), or Mito-Silyl-DCA (200 μM), for 6 h. Port injections for the seahorse glycostress assay included glucose (10 mM) in port A, oligomycin (1 μM) in port B, and 2-DG (50 mM) in port C. (FIG. 3C) Graphical representation quantifying the change in glycolysis, glycolytic capacity, and glycolytic reserve parameters upon treatment with test articles. The data in FIG. 3C was generated as an average from 3 independent biological replicates. The statistical significance between the treatment groups was measured by ordinary one-way analysis of variance (ANOVA) using multiple comparison.
# Cellular glycolysis inhibition by Mito-SilylDCA. Glycolysis inhibitory efficacy of Mito-Silyl-DCA was investigated in 4T1 breast cancer cell line which is known to be aggressive and highly glycolytic in nature with an overexpression of PDK1.^6 The Seahorse glycostress assay was performed to understand the metabolic fluxes of glycolysis. The 4T1 cells grown in normoxia were treated with TPP-(CH2)5—COOH) (200 μM), methoxyl(octadecyldimethyl)silane (200 μM), NaDCA (600 μM), Mito-DCA (200 μM), or Mito-Silyl-DCA (200 μM) for 6 h followed by washing and returning the cells to a glucose-free medium (FIG. 3A). The extracellular acidification rate (ECAR) traces were then monitored in response to the sequential administration of glucose, oligomycin, and 2-deoxy-D-glucose (2-DG) to assess glycolysis, glycolytic capacity, and glycolytic reserve, respectively. […] The data shown here are average from three independent biological replicates.
# Glycolysis inhibition in highly glycolytic cells. This example documented inhibition of glycolysis in 4T1 cells by Mito-SilylDCA using Seahorse glycostress assay (FIG. 3B). The Seahorse glycostress assay was performed to check the metabolic fluxes of glycolysis. 4T1 cells were treated with TPP-hexanoic acid (200 μM), methoxyl(octadecyldimethyl)silane (200 μM), sodium dichloroacetate (DCA) (600 μM), Mito-DCA (200 μM), or Mito-SilylDCA (200 μM) for 6 h followed by washout and returned to glycose-free medium. The extracellular acidification rate (ECAR) was monitored in response to the sequential administration of glucose, oligomycin, and 2-deoxy-D-glucose (2-DG) to assess glycolysis, glycolytic capacity, and glycolytic reserve, respectively (FIG. 3C).
# [3] = Chemical stability at different pH by HPLC and LC-MS (Example 2); assay type: physicochemical; details: DMF/water (1/1, v/v), 24 h, pH 4.5, 5.5, 6.5, 7.4, 8.5, room temperature
# Method: Stability of Mito-SilylDCA. With Mito-SilylDCA in hand, the chemical stability was checked to ensure the efficacy of drug in different physiological environments. A mixed solution of Mito-SilylDCA in DMF/water (1/1, v/v) was incubated for 24 h in different pH environment (4.5, 5.5, 6.5, 7.4, 8.5) at room temperature. Then the solutions were measured with HPLC and LC-MS to check the degradation behavior of the compounds.
# [4] = mouse, in vivo
# Method: Thus, the experiment investigated the efficacy of T-Mito-SilylDCA-NPs in an in vivo mouse model in combination with a cisplatin prodrug, Platin-M^20-21. […] Thus for this study, luciferase tagged MDA-MB-231BR^Luc cells in Balb/c nude mice were used. The experiment implanted MDA-MB-231BR^Luc cells in the right flank of N=7 female Balb/c nude mice (FIG. 5A). […] Once the tumors were established, these animals were treated with a combination of T-Platin-M-NP and T-Mito-SilylDCA-NP in a sequential manner to inhibit first OXPHOS with T-Platin-M-NP^20 and simultaneous inhibition of resulting glycolysis T-Mito-SilylDCA-NP. This study included two groups: Group 1, saline with n=3 animals and group 2, combination of T-Platin-M-NPs and T-Mito-SilylDCA-NPs with n=4 animals (FIG. 5A). The tumor bearing animals were treated with saline or combination therapeutics for 4 weeks following a biweekly treatment regimen which involved tail i.v injections of 10 mg/kg dose of T-Platin-M-NP with respect to Platin-M 24 h prior to 30 mg/kg dose of T-Mito-Silyl-DCA-NP with respect to Mito-SilylDCA. […] All the images were taken at the same aperture and field of view was kept at 22.4 cm. […]
# The present study administered T-Mito-SilylDCA to mice via intravenous injection and quantified the accumulation of NPs using ICP-MS analyses.
Structure (SMILES),degradation / stability at acidic pH [1],stability in alkaline conditions [1],hydrolysis in neutral conditions [1],glycolytic inhibitory properties compared to NaDCA [2],glycolysis inhibition (ECAR) ([2]; 200 μM),"decomposition compared with Mito-DCA ([1]; acidic conditions (pH 4.0), period of 24 h)",chemical stability [3],glycolysis inhibition capability compared to Mito-DCA ([2]; 200 μM),accumulation in the tumor [4],biodistribution: organs in which present [4]
"O=C(CCCCC[P+](c1ccccc1)(c1ccccc1)c1ccccc1)NC(COC(=O)C(Cl)Cl)(COC(=O)C(Cl)Cl)COC(=O)C(Cl)Cl [Mito-DCA, reference compound]",relatively slow degradation,unstable,hydrolyzed in a short time,significantly higher,significant glycolysis inhibition,,,,,
CCCCCCCCCCCCCCCCCC[Si](C)(C)OCC(COC(=O)C(Cl)Cl)(COC(=O)C(Cl)Cl)NC(=O)CCCCC[P+](c1ccccc1)(c1ccccc1)c1ccccc1 [Mito-SilylDCA],relatively slow degradation; also recorded: most stable at an acidic pH,unstable,hydrolyzed in a short time,significantly higher,significant inhibition of glycolysis,slower than Mito-DCA,stable in neural and weak acidic conditions,not significantly decreased,a significant portion of Mito-SilylDCA accumulated in the tumor,"liver, tumor mass, brain, kidney, and spleen"
"O=C(O)CCCCC[P+](c1ccccc1)(c1ccccc1)c1ccccc1.[Br-] [TPP-(CH2)5—COOH), (5-carboxypentyl)triphenylphosphonium bromide, reference compound]",,,,,No detectable changes in glycolysis levels,,,,,
"CCCCCCCCCCCCCCCCCC[Si](C)(C)OC [methoxyl(octadecyldimethyl)silane, reference compound]",,,,,No detectable changes in glycolysis levels,,,,,
